Measurements from ChEMBL document CHEMBL1201862, “PubChem BioAssay data set” (2004).
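These data come from cells grown in 96-well plates and exposed to compound for 48 hours at five concentrations. Abbreviation: GI50, concentration required for 50% inhibition of growth.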 The source made the active and inactive calls. No stated cut-off is given here; in the data, active = GI50 up to about 1.1 µM and inactive = higher.

How the values were obtained:
Test in all cases: NCI-60 cell line screen, 48 h
[1] = test system: SK-MEL-28
[2] = test system: SF-295
[3] = test system: SF-268
[4] = test system: SNB-19
[5] = test system: OVCAR-5
[6] = test system: HCT-116
[7] = test system: SNB-75
[8] = test system: HCT-15
[9] = test system: LOX IMVI
[10] = test system: M14
[11] = test system: COLO 205
[12] = test system: HOP-92
[13] = test system: NCI-H460
[14] = test system: TK-10
[15] = test system: KM12
[16] = test system: EKVX

Row | Compound | GI50 [1] | GI50 [2] | GI50 [3] | GI50 [4] | GI50 [5] | GI50 [6] | GI50 [7] | GI50 [8] [µM] | GI50 [9] | GI50 [10] | GI50 [11] | GI50 [12] | GI50 [13] | GI50 [14] | GI50 [15] | GI50 [16]
1 | Oc1ccc2ccccc2c1/N=N/c1ccc(F)cc1 | > 100 µM (inactive) | > 100 µM (inactive) | > 100 µM (inactive) | > 100 µM (inactive) | > 100 µM (inactive) | > 100 µM (inactive) | > 100 µM (inactive) | > 100 | > 100 µM (inactive) | > 100 µM (inactive) | > 100 µM (inactive) | > 100 µM (inactive) | > 100 µM (inactive) | > 100 µM (inactive) | 72.4 µM (inactive) | –
2 | CC(C)(C)C(=O)C1CC(=O)c2ccccc2C1=O (centres undefined) | 20.5 µM (inactive) | 36.2 µM (inactive) | 21.8 µM (inactive) | 24 µM (inactive) | 37.1 µM (inactive) | 21.4 µM (inactive) | 5.98 µM (inactive) | – | 40.8 µM (inactive) | 39.3 µM (inactive) | 31.8 µM (inactive) | 24.8 µM (inactive) | 29.7 µM (inactive) | 34.1 µM (inactive) | 31.8 µM (inactive) | 32.4 µM (inactive)
3 | COc1ccc(/C=C\c2cc(OC)c(O[Si](C)(C)C(C)(C)C)c(OC)c2)cc1 | 13.2 µM (inactive) | – | 45.5 µM (inactive) | 47.6 µM (inactive) | 20.6 µM (inactive) | 33.7 µM (inactive) | 64.9 µM (inactive) | – | – | 45.4 µM (inactive) | 68.9 µM (inactive) | 28.3 µM (inactive) | 33 µM (inactive) | – | 47.2 µM (inactive) | 70 µM (inactive)
4 | Cc1cc(N(CCC#N)CCC#N)ccc1/C=C1N=C(/C=C\c2ccccc2)N(NC(=O)CC(=O)Nc2ccccc2Cl)C\1=O | > 100 µM (inactive) | > 100 µM (inactive) | > 100 µM (inactive) | > 100 µM (inactive) | > 100 µM (inactive) | > 100 µM (inactive) | > 100 µM (inactive) | > 100 | > 100 µM (inactive) | > 100 µM (inactive) | > 100 µM (inactive) | > 100 µM (inactive) | > 100 µM (inactive) | > 100 µM (inactive) | > 100 µM (inactive) | –
5 | C#CCC(O)c1ccccc1C(O)CC#C (centres undefined) | > 100 µM (inactive) | > 100 µM (inactive) | – | > 100 µM (inactive) | > 100 µM (inactive) | – | 28.2 µM (inactive) | > 100 | > 100 µM (inactive) | > 100 µM (inactive) | > 100 µM (inactive) | 30.8 µM (inactive) | > 100 µM (inactive) | 97.5 µM (inactive) | > 100 µM (inactive) | > 100 µM (inactive)
6 | COC(=O)C12CCC(CC1=O)C2(C)C (centres undefined) | > 100 µM (inactive) | > 100 µM (inactive) | – | > 100 µM (inactive) | – | > 100 µM (inactive) | 40.2 µM (inactive) | > 100 | > 100 µM (inactive) | > 100 µM (inactive) | > 100 µM (inactive) | > 100 µM (inactive) | > 100 µM (inactive) | > 100 µM (inactive) | – | > 100 µM (inactive)
7 | CCOC(=O)/C(C(=O)c1ccccc1)=C1\N[C@H](C(=O)OCC)CS1 | > 100 µM (inactive) | > 100 µM (inactive) | > 100 µM (inactive) | > 100 µM (inactive) | > 100 µM (inactive) | > 100 µM (inactive) | > 100 µM (inactive) | > 100 | > 100 µM (inactive) | > 100 µM (inactive) | > 100 µM (inactive) | – | > 100 µM (inactive) | – | > 100 µM (inactive) | > 100 µM (inactive)
8 | NN1C(=O)C(CCO)S/C1=N/N=C1/SC(CCO)C(=O)N1N (centres undefined) | > 100 µM (inactive) | > 100 µM (inactive) | > 100 µM (inactive) | > 100 µM (inactive) | > 100 µM (inactive) | > 100 µM (inactive) | > 100 µM (inactive) | > 100 | > 100 µM (inactive) | > 100 µM (inactive) | > 100 µM (inactive) | > 100 µM (inactive) | > 100 µM (inactive) | – | > 100 µM (inactive) | > 100 µM (inactive)
9 | CC(=O)OC1CC2(c3ccccc3)C(=O)c3ccccc3N2O1 (centres undefined) | > 100 µM (inactive) | > 100 µM (inactive) | > 100 µM (inactive) | > 100 µM (inactive) | – | > 100 µM (inactive) | > 100 µM (inactive) | > 100 | – | > 100 µM (inactive) | > 100 µM (inactive) | 65.8 µM (inactive) | – | – | – | 78.3 µM (inactive)
10 | N#CC(C(=O)C(N)=O)c1ccccc1Cl (centres undefined) | > 100 µM (inactive) | > 100 µM (inactive) | > 100 µM (inactive) | > 100 µM (inactive) | > 100 µM (inactive) | > 100 µM (inactive) | > 100 µM (inactive) | > 100 | > 100 µM (inactive) | > 100 µM (inactive) | > 100 µM (inactive) | – | > 100 µM (inactive) | > 100 µM (inactive) | > 100 µM (inactive) | > 100 µM (inactive)
